Ten compounds from patent publication US12516056B2, “Compounds for inhibition of janus kinase 1” (MANKIND PHARMA LTD., priority 2019, dated 2026) can be followed below.

Some results are limits rather than exact numbers.

One experiment addresses T1, Recombinant JAK2 (Homo sapiens, UniProt O60674).
T1 construct: purchased Carna Biosciences
As to the kind of experiment: JAK biochemical assay (LANCE Ultra TR-FRET), JAK2. To be noted: recombinant JAK2, TR-FRET; read-out: Biochemical Assay (μM) JAK2. The procedure: (§1) Recombinant JAK1, JAK2, JAK3 and TYK2 (Carna Biosciences) were used to develop biochemical assays in 50 mM HEPES pH 7.5, 1 mM EGTA, 10 mM MgCl2, 2 mM DTT and 0.01% Tween-20. […] The intensity of the light emission is proportional to the level of ULight substrate phosphorylation. Compounds which interfere with JAK enzyme activity show a lesser substrate phosphorylation and values are projected in terms of % inhibition in comparison to vehicle control.
In general terms: TR-FRET usually uses a lanthanide donor and a delayed reading to cut background.

A further experiment deals with T2, Recombinant TYK2 (Homo sapiens, UniProt P29597).
T2 construct: purchased Carna Biosciences
T2 sequence (P29597 whole entry): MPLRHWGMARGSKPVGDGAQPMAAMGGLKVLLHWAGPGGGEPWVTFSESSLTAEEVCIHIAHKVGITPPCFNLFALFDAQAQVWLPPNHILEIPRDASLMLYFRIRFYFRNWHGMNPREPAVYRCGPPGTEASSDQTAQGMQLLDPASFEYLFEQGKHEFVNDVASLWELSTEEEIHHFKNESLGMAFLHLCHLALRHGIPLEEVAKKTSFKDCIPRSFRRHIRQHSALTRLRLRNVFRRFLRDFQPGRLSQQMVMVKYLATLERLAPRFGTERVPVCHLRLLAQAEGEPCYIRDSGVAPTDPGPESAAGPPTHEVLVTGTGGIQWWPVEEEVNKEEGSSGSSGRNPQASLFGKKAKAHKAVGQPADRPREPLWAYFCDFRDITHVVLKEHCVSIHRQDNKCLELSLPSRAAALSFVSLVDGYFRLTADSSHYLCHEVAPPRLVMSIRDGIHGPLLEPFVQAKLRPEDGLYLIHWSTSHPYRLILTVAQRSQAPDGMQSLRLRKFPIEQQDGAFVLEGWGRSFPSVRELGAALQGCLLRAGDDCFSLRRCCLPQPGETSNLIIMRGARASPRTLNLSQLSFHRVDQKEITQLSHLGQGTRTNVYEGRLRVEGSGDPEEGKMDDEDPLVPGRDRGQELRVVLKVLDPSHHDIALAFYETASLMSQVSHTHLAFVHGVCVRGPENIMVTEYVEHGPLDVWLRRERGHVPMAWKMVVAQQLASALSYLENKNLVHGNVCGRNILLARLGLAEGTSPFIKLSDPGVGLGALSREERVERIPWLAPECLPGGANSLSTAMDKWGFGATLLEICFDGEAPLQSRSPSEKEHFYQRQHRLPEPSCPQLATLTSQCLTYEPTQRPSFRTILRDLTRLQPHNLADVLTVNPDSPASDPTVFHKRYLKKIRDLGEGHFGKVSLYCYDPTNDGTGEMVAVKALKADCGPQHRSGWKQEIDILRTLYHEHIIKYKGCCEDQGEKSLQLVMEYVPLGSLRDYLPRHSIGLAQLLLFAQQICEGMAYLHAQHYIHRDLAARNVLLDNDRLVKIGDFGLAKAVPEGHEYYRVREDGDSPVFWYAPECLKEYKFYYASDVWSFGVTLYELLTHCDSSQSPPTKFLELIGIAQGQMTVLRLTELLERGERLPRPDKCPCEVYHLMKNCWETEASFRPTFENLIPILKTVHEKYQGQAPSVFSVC
Nature of the experiment: JAK biochemical assay (LANCE Ultra TR-FRET), TYK2. To be noted: recombinant TYK2, TR-FRET; read-out: Biochemical Assay (μM) TYK2. The procedure:
as §1

Another experiment addresses T3, Recombinant JAK1 (Homo sapiens, UniProt P23458).
T3 construct: purchased Carna Biosciences
Nature of the experiment: JAK biochemical assay (LANCE Ultra TR-FRET), JAK1. To be noted: recombinant JAK1, TR-FRET; read-out: Biochemical Assay (μM) JAK1. On the procedure:
as §1

The target of another experiment is T4, Recombinant JAK3 (Homo sapiens, UniProt P52333).
T4 construct: purchased Carna Biosciences
T4 sequence (P52333 1-1124): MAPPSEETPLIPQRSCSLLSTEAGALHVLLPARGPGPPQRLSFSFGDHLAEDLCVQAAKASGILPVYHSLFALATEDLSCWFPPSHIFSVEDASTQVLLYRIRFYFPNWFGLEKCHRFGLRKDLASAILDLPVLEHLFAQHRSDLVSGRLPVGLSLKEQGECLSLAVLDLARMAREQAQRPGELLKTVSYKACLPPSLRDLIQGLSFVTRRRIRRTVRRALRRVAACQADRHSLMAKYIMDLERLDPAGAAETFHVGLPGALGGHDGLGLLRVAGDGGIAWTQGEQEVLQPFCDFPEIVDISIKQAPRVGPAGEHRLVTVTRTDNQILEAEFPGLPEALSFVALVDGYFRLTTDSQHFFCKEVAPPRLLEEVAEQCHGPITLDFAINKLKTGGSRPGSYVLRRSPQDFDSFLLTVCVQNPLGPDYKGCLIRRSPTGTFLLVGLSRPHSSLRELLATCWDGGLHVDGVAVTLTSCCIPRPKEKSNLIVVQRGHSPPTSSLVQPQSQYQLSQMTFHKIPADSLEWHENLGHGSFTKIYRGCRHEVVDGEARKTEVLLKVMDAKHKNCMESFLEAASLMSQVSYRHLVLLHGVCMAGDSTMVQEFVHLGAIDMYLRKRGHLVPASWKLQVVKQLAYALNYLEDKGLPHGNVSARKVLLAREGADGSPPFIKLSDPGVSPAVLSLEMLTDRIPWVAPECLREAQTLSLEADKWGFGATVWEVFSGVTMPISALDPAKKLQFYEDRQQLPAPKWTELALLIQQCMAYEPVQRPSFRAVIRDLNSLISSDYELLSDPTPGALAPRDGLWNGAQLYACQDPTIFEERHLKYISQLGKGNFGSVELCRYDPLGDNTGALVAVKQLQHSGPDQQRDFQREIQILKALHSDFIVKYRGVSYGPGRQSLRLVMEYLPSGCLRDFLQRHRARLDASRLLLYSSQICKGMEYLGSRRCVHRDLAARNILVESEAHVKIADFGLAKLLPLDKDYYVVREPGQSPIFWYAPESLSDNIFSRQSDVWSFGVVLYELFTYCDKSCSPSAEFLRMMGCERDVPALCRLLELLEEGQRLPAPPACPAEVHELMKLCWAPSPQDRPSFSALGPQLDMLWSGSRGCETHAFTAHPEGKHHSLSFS
As to the kind of experiment: JAK biochemical assay (LANCE Ultra TR-FRET), JAK3. To be noted: recombinant JAK3, TR-FRET; read-out: Biochemical Assay (μM) JAK3. On the procedure: as §1

T1 sequence (O60674 whole entry): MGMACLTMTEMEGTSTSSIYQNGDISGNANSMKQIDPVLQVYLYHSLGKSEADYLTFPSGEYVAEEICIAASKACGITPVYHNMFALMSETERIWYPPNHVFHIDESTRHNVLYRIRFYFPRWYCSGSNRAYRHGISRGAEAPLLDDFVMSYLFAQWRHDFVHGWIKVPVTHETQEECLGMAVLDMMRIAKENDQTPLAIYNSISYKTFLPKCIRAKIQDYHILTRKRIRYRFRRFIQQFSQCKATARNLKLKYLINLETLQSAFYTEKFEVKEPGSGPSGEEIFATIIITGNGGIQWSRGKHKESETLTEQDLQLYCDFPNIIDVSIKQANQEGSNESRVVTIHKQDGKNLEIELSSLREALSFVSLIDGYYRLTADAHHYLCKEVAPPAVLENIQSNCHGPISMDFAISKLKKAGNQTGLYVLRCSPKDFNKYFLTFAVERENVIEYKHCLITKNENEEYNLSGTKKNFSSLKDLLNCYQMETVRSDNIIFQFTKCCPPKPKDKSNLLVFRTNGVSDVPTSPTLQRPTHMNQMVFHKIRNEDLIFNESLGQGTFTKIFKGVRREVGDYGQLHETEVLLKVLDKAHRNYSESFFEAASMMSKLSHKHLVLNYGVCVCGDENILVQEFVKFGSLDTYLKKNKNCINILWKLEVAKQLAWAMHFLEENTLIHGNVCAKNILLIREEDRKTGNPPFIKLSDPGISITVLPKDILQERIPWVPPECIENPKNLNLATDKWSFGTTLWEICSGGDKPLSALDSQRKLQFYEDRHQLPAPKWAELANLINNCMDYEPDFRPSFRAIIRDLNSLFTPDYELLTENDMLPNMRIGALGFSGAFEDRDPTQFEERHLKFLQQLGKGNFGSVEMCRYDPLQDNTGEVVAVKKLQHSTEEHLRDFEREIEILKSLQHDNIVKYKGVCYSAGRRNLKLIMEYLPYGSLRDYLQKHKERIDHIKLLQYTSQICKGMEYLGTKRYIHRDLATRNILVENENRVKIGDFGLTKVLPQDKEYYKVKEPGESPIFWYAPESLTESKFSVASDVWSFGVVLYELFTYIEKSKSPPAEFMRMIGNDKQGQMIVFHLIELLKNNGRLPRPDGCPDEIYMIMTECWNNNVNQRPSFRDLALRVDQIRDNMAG
T3 sequence (P23458 whole entry): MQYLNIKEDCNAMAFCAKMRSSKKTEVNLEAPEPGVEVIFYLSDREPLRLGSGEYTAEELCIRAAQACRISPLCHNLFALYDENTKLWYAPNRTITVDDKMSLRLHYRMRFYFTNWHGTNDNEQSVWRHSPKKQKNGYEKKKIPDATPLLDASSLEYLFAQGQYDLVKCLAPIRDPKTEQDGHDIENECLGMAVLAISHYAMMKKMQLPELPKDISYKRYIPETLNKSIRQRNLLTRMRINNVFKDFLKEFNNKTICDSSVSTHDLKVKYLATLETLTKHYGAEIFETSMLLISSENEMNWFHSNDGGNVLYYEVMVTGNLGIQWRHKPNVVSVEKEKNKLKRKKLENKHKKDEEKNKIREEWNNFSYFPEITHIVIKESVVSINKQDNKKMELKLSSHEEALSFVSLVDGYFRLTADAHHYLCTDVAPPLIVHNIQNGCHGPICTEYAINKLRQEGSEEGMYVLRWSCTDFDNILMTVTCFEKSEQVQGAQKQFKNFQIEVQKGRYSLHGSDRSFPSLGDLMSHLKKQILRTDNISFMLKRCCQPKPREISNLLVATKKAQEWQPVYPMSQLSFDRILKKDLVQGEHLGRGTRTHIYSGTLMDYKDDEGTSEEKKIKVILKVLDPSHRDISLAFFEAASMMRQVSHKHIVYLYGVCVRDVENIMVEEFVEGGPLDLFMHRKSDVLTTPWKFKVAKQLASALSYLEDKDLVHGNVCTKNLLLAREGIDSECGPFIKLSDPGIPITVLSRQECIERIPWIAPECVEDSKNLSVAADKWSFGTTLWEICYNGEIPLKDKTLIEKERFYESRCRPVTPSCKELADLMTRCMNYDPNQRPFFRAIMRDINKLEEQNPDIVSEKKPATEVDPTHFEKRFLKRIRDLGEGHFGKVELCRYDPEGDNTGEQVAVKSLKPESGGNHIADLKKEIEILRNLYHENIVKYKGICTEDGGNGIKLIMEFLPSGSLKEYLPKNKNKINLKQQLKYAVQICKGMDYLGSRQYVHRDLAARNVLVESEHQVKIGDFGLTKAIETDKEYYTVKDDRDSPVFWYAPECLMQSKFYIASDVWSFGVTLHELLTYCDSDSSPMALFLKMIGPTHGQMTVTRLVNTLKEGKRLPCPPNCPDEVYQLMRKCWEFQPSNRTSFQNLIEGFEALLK

Regarding `O=C(CN1CCN(c2ccnc3[nH]c(=O)[nH]c23)CC1)NCC(F)(F)F` [Example 1025, N-(2,2,2-trifluoroethyl)-2-(4-(2,3-dihydro-2-oxo-1H-imidazo[4,5-b]pyridin-7-yl)piperazin-1-yl)acetamide], the IC50 at Recombinant JAK2, on Recombinant TYK2, at Recombinant JAK1 and at Recombinant JAK3 was above 10 µM each time.
Turning to `COC(CCS(C)(=O)=O)c1ccc(-n2cc(-c3ccnc4[nH]cnc34)cn2)nc1` (stereo not shown) [Example 1161, 7-(1-(5-(1-methoxy-3-(methylsulfonyl)propyl)pyridin-2-yl)-1H-pyrazol-4-yl)-3H-imidazo[4,5-b]pyridine], the IC50 was above 1 µM at Recombinant JAK2, above 1 µM at Recombinant TYK2, above 1 µM on Recombinant JAK1 and above 0.5 µM at Recombinant JAK3.
Consider `N#CCC(=O)NCc1ccc(-n2cc(-c3ccnc4[nH]cnc34)cn2)nc1` [Example 1091, N-((6-(4-(3H-imidazo[4,5-b]pyridin-7-yl)-1H-pyrazol-1-yl)pyridin-3-yl)methyl)-2-cyanoacetamide], for which the IC50 was above 1 µM on Recombinant JAK2, above 10 µM on Recombinant TYK2, above 0.5 µM on Recombinant JAK1 and above 0.5 µM at Recombinant JAK3.
Turning to `N#CC(NC(=O)n1cc(-c2ccnc3[nH]c(=O)[nH]c23)cn1)c1ccccc1` (stereo not shown) [Example 1063, N-(cyano(phenyl)methyl)-4-(2,3-dihydro-2-oxo-1H-imidazo[4,5-b]pyridin-7-yl)-1H-pyrazole-1-carboxamide], the IC50 is below 0.5 µM on Recombinant JAK2, below 0.5 µM on Recombinant TYK2, above 0.5 µM at Recombinant JAK1 and above 0.5 µM on Recombinant JAK3.
Consider `O=S(=O)(CCC(c1ccc(-n2cc(-c3ccnc4[nH]cnc34)cn2)nc1)C(F)(F)F)CC1CC1` (stereo not shown) [Example 1204, 7-(1-(5-(4-(cyclopropylmethylsulfonyl)-1,1,1-trifluorobutan-2-yl)pyridin-2-yl)-1H-pyrazol-4-yl)-3H-imidazo[4,5-b]pyridine], for which the IC50 is below 0.1 µM at Recombinant JAK2, above 1 µM at Recombinant TYK2, below 0.1 µM at Recombinant JAK1 and below 0.1 µM at Recombinant JAK3.
Consider `O=C(NCC(F)(F)F)Nc1ncc(-c2ccnc3[nH]c(=O)[nH]c23)cn1` [Example 1004, 1-(2,2,2-trifluoroethyl)-3-(5-(2,3-dihydro-2-oxo-1H-imidazo[4,5-b]pyridin-7-yl)pyrimidin-2-yl)urea], for which the IC50 on Recombinant JAK2, on Recombinant TYK2, at Recombinant JAK1 and on Recombinant JAK3 was above 10 µM each time.
For the compound `CS(=O)(=O)N1CCC(C(O)c2ccc(-n3cc(-c4ccnc5[nH]cnc45)cn3)nc2)CC1` (stereo not shown) [Example 1164, (6-(4-(3H-imidazo[4,5-b]pyridin-7-yl)-1H-pyrazol-1-yl)pyridin-3-yl)(1-(methylsulfonyl)piperidin-4-yl)methanol], the IC50 at Recombinant JAK2, on Recombinant TYK2, at Recombinant JAK1 and on Recombinant JAK3 was above 1 µM each time.
For the compound `O=C(NCC1CCCC1)N1CCN(c2ccnc3[nH]c(=O)[nH]c23)CC1` [Example 1017, N-(cyclopentylmethyl)-4-(2,3-dihydro-2-oxo-1H-imidazo[4,5-b]pyridin-7-yl)piperazine-1-carboxamide], the IC50 at Recombinant JAK2 is above 1 µM; on Recombinant TYK2, above 10 µM; on Recombinant JAK1, above 1 µM; at Recombinant JAK3 it was above 10 µM.
On to `N#CCNC(=O)c1ccc(-n2cc(-c3ccnc4[nH]cnc34)cn2)nc1` [Example 1088, 6-(4-(3H-imidazo[4,5-b]pyridin-7-yl)-1H-pyrazol-1-yl)-N-(cyanomethyl)pyridine-3-carboxamide], for which the IC50 on Recombinant JAK2, at Recombinant TYK2, at Recombinant JAK1 and at Recombinant JAK3 was above 1 µM throughout.
Regarding `CS(=O)(=O)CCNC(=O)N1CCN(c2ccnc3[nH]c(=O)[nH]c23)CC1` [Example 1013, 4-(2,3-dihydro-2-oxo-1H-imidazo[4,5-b]pyridin-7-yl)-N-(2-(methylsulfonyl)ethyl)piperazine-1-carboxamide], the IC50 at Recombinant JAK2, at Recombinant TYK2, at Recombinant JAK1 and at Recombinant JAK3 was above 10 µM throughout.
